Results from ChEMBL document CHEMBL3632491, “Synthesis and evaluation of aminopyridine derivatives as potential BACE1 inhibitors” (Bioorg Med Chem Lett, 2015).

Each compound was assayed against Beta-secretase 1 (Homo sapiens) (UniProt P56817) (assay: Inhibition of recombinant BACE1 (unknown origin) using synthetic dodecapeptide with BACE1 cleavage sequence of Swedish type as substrate at 2 mM after 30 mins).
Sequence of Beta-secretase 1 (Homo sapiens) (P56817 whole entry): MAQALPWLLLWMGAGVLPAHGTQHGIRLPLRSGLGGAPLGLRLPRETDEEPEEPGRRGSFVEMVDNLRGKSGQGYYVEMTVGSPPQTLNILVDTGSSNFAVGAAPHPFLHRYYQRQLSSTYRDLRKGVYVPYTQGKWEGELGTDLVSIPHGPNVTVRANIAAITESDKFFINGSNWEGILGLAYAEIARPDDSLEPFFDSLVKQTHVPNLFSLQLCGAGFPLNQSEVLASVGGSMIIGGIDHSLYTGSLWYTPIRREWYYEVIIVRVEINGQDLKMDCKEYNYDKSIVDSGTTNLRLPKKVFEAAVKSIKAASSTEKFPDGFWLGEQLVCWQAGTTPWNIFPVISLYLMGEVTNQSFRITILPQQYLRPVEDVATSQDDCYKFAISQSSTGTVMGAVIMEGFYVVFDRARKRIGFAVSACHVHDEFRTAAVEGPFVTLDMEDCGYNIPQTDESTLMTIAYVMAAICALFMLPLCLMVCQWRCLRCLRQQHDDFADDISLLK

Going from `COc1cccc(C(O)CCCCc2cccc(NC(C)=O)n2)c1` (stereo unspecified) to `COc1cccc(CCCCc2cccc(NC(C)=O)n2)c1`, the inhibition falls from 56% to 21%.

First: COc1cccc(C(O)CCc2cccnc2NC(C)=O)c1 (stereo unspecified)
Second: COc1cccc(C(O)CCCCc2ccc(NC(C)=O)nc2)c1 (stereo unspecified)
The inhibition of the first is lower: 18% for the first, 20% for the second.

First: COc1cccc(CCCCc2ccc(NC(C)=O)nc2)c1
Second: COCOc1ccc(C(=O)Nc2ccc(CCCCC(O)c3cccc(OC)c3)cn2)cc1 (stereo unspecified)
The inhibition of the first is higher: 20% for the first, 19% for the second.
